Measured values published in article PMC9260921, “Design and Synthesis of Carbothioamide/Carboxamide-Based Pyrazoline Analogs as Potential Anticancer Agents: Apoptosis, Molecular Docking, ADME Assay, and DNA Binding Studies” (ACS Omega, 2022).
Converted amounts (≈) assume the structure as drawn. One block for each molecule: values may come before it.

Key:
[1] = system: human cervical cancer cell (HeLa); experiment: MTT cytotoxicity assay, HeLa; format: cell-based; conditions: for Selectivity Index HeLa: HFL-1 vs HeLa; for IC50: Homo sapiens, MTT, 24 h treatment, HeLa
Method: (§1) The American type culture collection (ATCC, USA) provided human lung cancer cell line (A549), cervical cancer cell line (HeLa), and human primary normal lung cells (HFL-1) for this investigation. In a water-jacketed cell culture incubator, all of these cell types were cultured according to conventional culture conditions at 37 °C with 5% CO2. These cells were cultured in appropriate cell culture media. A549 cells were grown in DMEM media with 2 mM glutamine, HeLa cells were grown in Eagle’s minimum essential medium (EMEM) as recommended, whereas HFL-1 cells were also grown in F-12K. Fetal bovine serum 10% (FBS) was added to the entire medium. At a rate of 8000 cells were seeded in triplicate in a single 96-well plate for the MTT technique of cell death investigation. […] After the treatment period was finished, the media was removed, and each well was gently washed three times with PBS to clear any remaining residue just before the experiment. […] The plates were incubated at 37 °C for 4 h after the MTT was added. We used DMSO to remove crystals after the incubation period was completed. A hybrid multi-mode plate reader (BioTek, USA) with a microplate reader was used to measure absorbance at 570 nm. The percentage inhibition was calculated using eq 1: [drawing 1] 1 where ODtreated is the mean optical density (OD) of the treated cells and ODcontrol is the OD of the vehicle control cells (negative control).
(§2) With all of the experimental drugs, we conducted the MTT assay three times. Prism8 software (GraphPad) was used to determine the IC50 values of the various drugs, which were then expressed as a drug concentration (μM).

[2] = system: human primary normal lung cells (HFL-1); experiment: MTT cytotoxicity assay, HFL-1; format: cell-based; conditions: HFL1, 24 h treatment
Method: as §1, §2

[3] = system: human lung cancer cell (A549); experiment: MTT cytotoxicity assay, A549; format: cell-based; conditions: for Selectivity Index A549: HFL-1 vs A549; for IC50: Homo sapiens, MTT, 24 h treatment, A549
Method: as §1, §2

Ct-DNA [4] = experiment: Cyclic voltammetry; format: binding; conditions: Tris-buffer, 100 mV s^–1, DNA 10–40 μM
Method: Using this experiment, a drug–DNA binding interaction has also been investigated. The solution’s pH was maintained before analysis, and the entire analytical equipment was built at 25 °C with a constant potential of 100 mV s^–1 scan rate and a voltage range of −1 to +1 V. The spectra of a test compound (60 μL) were recorded using a screen-printed electrode (SPE). These experiments were carried out in a 1:1 ferri/ferrocyanide solution ratio. Various concentrations of Ct-DNA (Tris-buffer) were used to further evaluate test compounds 3a and 3h. The working electrode is made of the test compound, whereas the counter and reference electrodes are made of gold-coated copper. Binding constants were obtained using eq 4: [drawing 4] 4 where I0 and I are the peak currents of compound and compound–DNA complexes, respectively.[56]

A549 cells = experiment: Annexin V-FITC/PI flow cytometry apoptosis assay; format: cell-based, human; conditions: 4 μM, 24 h, control 11.41%
Method: We used flow cytometry analysis on A549 and HeLa cells for the quantitative apoptosis assay. As previously stated, cells were cultivated at 1.0 × 10^5 cells/ml and plated in 24-well culture plates (Corning) for 24 h. Cells were cultured for further 24 h after being treated with 4 μm of target drugs 3a and 3h. For analysis, the medium was discarded and cells were washed briefly in PBS, and then, the trypsinization protocol was carried out. Furthermore, cells were suspended in PBS and stained with annexin in V-FITC/PI according to the supplier technique (Sigma, USA, catalogue number: APOAF-20TST). After adding the reagents, the cells were allowed to incubate for 30 min at room temperature before being analyzed in PBS. The analysis was conducted on a BD FACS Accuri (BD Biosciences, USA), and the results were analyzed using FlowJo software (BD Biosciences, USA).[42]

[5] = DPPH radical scavenging antioxidant assay; conditions: 1 h incubation in the dark
Method: The antioxidant activity of the 3a and 3h was determined using the DPPH ([…]) radical scavenging technique, as reported.[60],[73] In methanol, the DPPH radical has a purple color and has a strong absorption band with a maximum of 517 nm. Compound concentrations ranging from 1 to 4 μM were mixed with DPPH at a concentration of 10 μM. The mixtures were properly mixed and then incubated at room temperature for 1 h in the dark. The standard reference was ascorbic acid. As a control, DPPH in methanol was utilized. The % of DPPH radical scavenged was used to calculate the antioxidant activity of the compounds, which was calculated using eq 5: [drawing 5] 5 where Acontrol = DPPH absorbance; Asample = sample with DPPH absorbance.

Ct-DNA [6] = experiment: Fluorescence emission titration; format: binding; conditions: DNA 10 μM, compound 10–80 μM
Method: Drug interactions with Ct-DNA have been studied using fluorescence assays. The experiments were achieved by varying drug concentration from 10 to 80 μM while keeping the concentration of DNA (10 μM) constant. Before making emission observation, the synthesized compound was incubated for 3 min with mixing DNA, after which emission titration was collected in Tris-buffer (pH 7.4) excitation at wavelength 260 nm, and the quenching results were analyzed using the Stern–Volmer equation (eq 3): [drawing 3] 3 Slit width has been kept constant at 10 nm during emission and excitation. The titration experiments were repeated three times (n = 3) to ensure consistent results.[50]−[52]

EB-DNA complex (Ct-DNA) = experiment: Ethidium bromide dye displacement assay; format: binding; conditions: quenching of EB-DNA fluorescence
Text: Competitive fluorescence binding experiments utilizing ethidium bromide, a standard intercalation indicator, were used to evaluate the degree of molecular binding interaction mechanism of an active drug with Ct-DNA. […] The observable changes in the EB–DNA adduct’s emission spectrum as a function of quencher addition are particularly valuable for researching compound–DNA interactions. Fluorescence measurements were done in Tris-buffer at a 515 nm excitation wavelength in the range of 530–700 nm. Slit widths for both emission and excitation were set at about 10 nm.[54],[69]

[7] = system: breast cancer cell line (MCF-7); set-up: method as in PMID 20627597; conditions: cited from earlier work
HeLa = system: HeLa; set-up: method as in PMID 27159418; conditions: cited from earlier work

Compound: CN(C)c1ccc(C2CC(c3cccc(Br)c3)=NN2C(N)=S)cc1 (stereo not drawn) [Compound 3b]
- Selectivity Index HeLa [1]: 1.5
- IC50 [1]: 150.1 ± 0.24 µM
- IC50 [2]: 227.98 ± 0.04 µM
- Selectivity Index A549 [3]: 1.0
- IC50 [3]: 222.3 ± 0.09 µM

Compound: CCN(CC)c1ccc(C2CC(c3ccc(Br)cc3)=NN2C(N)=S)cc1 (stereo not drawn) [Compound 3l]
- Selectivity Index HeLa [1]: 10.5
- IC50 [1]: 17.7 ± 0.42 µM
- IC50 [2]: 185.45 ± 0.14 µM
- Selectivity Index A549 [3]: 4.2
- IC50 [3]: 43.93 ± 0.13 µM

- IC50 DPPH radical scavenging [5]: 0.215 ± 0.025 µg/mL (≈ 0.555 µM)
Compound: CN(C)c1ccc(C2CC(c3cccc(Br)c3)=NN2C(N)=O)cc1 (stereo not drawn) [Compound 3h]
- binding constant K (cyclic voltammetry) (Ct-DNA [4]): 7.1 × 10^3
- cell death (sum of Q1+Q2+Q3) (A549 cells): 20.60%
- Selectivity Index HeLa [1]: 7.1
- IC50 [1]: 24.1 ± 0.86 µM
- Stern–Volmer constant KSV (emission titration) (Ct-DNA [6]): 4.28 × 10^3 M^–1
- IC50 [2]: 173 ± 10 µM
- Selectivity Index A549 [3]: 7.6
- IC50 [3]: 22.5 ± 0.25 µM
- Stern–Volmer constant KSV (EtBr displacement) (EB-DNA complex (Ct-DNA)): 1.69 × 10^4 M^–1

Compound: COc1ccc(C2CC(c3ccc(C)c(C)c3)=NN2C(N)=S)cc1 (stereo not drawn) [Compound 1]
- IC50 [7]: 0.08 µM

Compound: CN(C)c1ccc(C2CC(c3cccc4ccccc34)=NN2C(N)=S)cc1 (stereo not drawn) [Compound 3j]
- Selectivity Index HeLa [1]: 0.8
- IC50 [1]: 194.2 ± 0.44 µM
- IC50 [2]: 166.75 ± 0.03 µM
- Selectivity Index A549 [3]: 0.5
- IC50 [3]: 290.09 ± 0.14 µM

- IC50 DPPH radical scavenging [5]: 0.132 ± 0.012 µg/mL (≈ 0.368 µM)
Compound: CN(C)c1ccc(C2CC(c3ccc(Cl)cc3)=NN2C(N)=S)cc1 (stereo not drawn) [Compound 3a]
- binding constant K (cyclic voltammetry) (Ct-DNA [4]): 1.25 × 10^4
- cell death (sum of Q1+Q2+Q3) (A549 cells): 25.86%
- Selectivity Index HeLa [1]: 6.5
- IC50 [1]: 17.52 ± 0.09 µM
- Stern–Volmer constant KSV (emission titration) (Ct-DNA [6]): 5.80 × 10^3 M^–1
- IC50 [2]: 114.5 ± 0.01 µM
- Selectivity Index A549 [3]: 8.4
- IC50 [3]: 13.5 ± 0.17 µM
- Stern–Volmer constant KSV (EtBr displacement) (EB-DNA complex (Ct-DNA)): 1.84 × 10^4 M^–1

Compound: COc1cccc(C2=NN(C(N)=O)C(c3cn(C)c4ccc(Br)cc34)C2)c1 (stereo not drawn) [Compound 3]
- IC50 (HeLa): 0.25 µM

Compound: CN(C)c1ccc(C2CC(c3cccc([N+](=O)[O-])c3)=NN2C(N)=S)cc1 (stereo not drawn) [Compound 3c]
- Selectivity Index HeLa [1]: 1.4
- IC50 [1]: 123.6 ± 0.2 µM
- IC50 [2]: 185.3 ± 0.21 µM
- Selectivity Index A549 [3]: 1.1
- IC50 [3]: 163.9 ± 0.07 µM

Compound: CN(C)c1ccc(C2CC(c3ccc([N+](=O)[O-])cc3)=NN2C(N)=O)cc1 (stereo not drawn) [Compound 3i]
- Selectivity Index HeLa [1]: 2.0
- IC50 [1]: 80.7 ± 0.28 µM
- IC50 [2]: 165.84 ± 0.03 µM
- Selectivity Index A549 [3]: 0.9
- IC50 [3]: 174.84 ± 0.05 µM

Compound: CN(C)c1ccc(C2CC(c3ccc(Br)cc3)=NN2C(N)=S)cc1 (stereo not drawn) [Compound 3f]
- Selectivity Index HeLa [1]: 1.1
- IC50 [1]: 168.8 ± 0.36 µM
- IC50 [2]: 194.33 ± 0.01 µM
- Selectivity Index A549 [3]: 2.0
- IC50 [3]: 94.18 ± 0.11 µM

Compound: COc1cc(C2=NN(C(N)=O)C(c3cn(C)c4ccc(Br)cc34)C2)cc(OC)c1OC (stereo not drawn) [Compound 2]
- IC50 (HeLa): 0.21 µM

Compound: Cc1ccc(C2=NN(C(N)=S)C(c3ccc(N(C)C)cc3)C2)cc1 (stereo not drawn) [Compound 3e]
- Selectivity Index HeLa [1]: 17.4
- IC50 [1]: 14.1 ± 0.4 µM
- IC50 [2]: 244.64 ± 0.05 µM
- IC50 [3]: 37.07 ± 0.14 µM

Compound: CN(C)c1ccc(C2CC(c3ccccc3Cl)=NN2C(N)=S)cc1 (stereo not drawn) [Compound 3d]
- Selectivity Index HeLa [1]: 14.46
- IC50 [1]: 15 ± 0.46 µM
- IC50 [2]: 217.03 ± 0.02 µM
- Selectivity Index A549 [3]: 1.8
- IC50 [3]: 118.7 ± 0.08 µM

Compound: CN(C)c1ccc(C2CC(c3ccc(Cl)cc3)=NN2C(N)=O)cc1 (stereo not drawn) [Compound 3g]
- Selectivity Index HeLa [1]: 0.03
- IC50 [1]: 890.3 ± 0.22 µM
- IC50 [2]: 26.94 ± 0.08 µM
- Selectivity Index A549 [3]: 0.4
- IC50 [3]: 59.74 ± 0.18 µM

Compound: CN(C)c1ccc(C2CC(c3cccc4ccccc34)=NN2C(N)=O)cc1 (stereo not drawn) [Compound 3k]
- Selectivity Index HeLa [1]: 0.2
- IC50 [1]: 96.46 ± 0.25 µM
- IC50 [2]: 27.52 ± 0.06 µM
- Selectivity Index A549 [3]: 0.5
- IC50 [3]: 52.76 ± 0.28 µM
